Results on two molecules are retold here after patent publication US20160264593A1 (priority 2013, published 2016).

SMILES strings stand for the structures. Like-named read-outs stand apart in the source and are kept apart here.

A short description of series [1]: Oral administration of 100 and 151 (Discussion): oral bioavailability, plasma and brain levels.
The next series concerns human cancer cell lines. The experiment in a line: IC50 for a broad spectrum of human cancer cell lines. Format: cell-based.
For series [2] the following is noted: rat, in vivo.
For series [3] the following is noted: rat, in vivo. This is another data set of the same source.
For series [4] the following is noted: female dogs, day 4, cited from earlier work.
A short description of series [5]: Microsomal stability, mouse microsomes. The format is in vitro ADME. The following applies: relative to verapamil.
Series [6] is described as follows: Microsomal stability, rat microsomes. The format is in vitro ADME. The note with it: relative to verapamil.
The next series is described as follows: in vivo. The following applies: rat, po.

`COC(=O)C1C2CCC(O2)C1C(=O)N1CCN(C)CC1` (stereo not drawn) [Compound 151]: in series [1] (151 given by mouth to rats), the “151 in brain tissue (statement)” value is “barely detectable in brain tissue” and the “levels of compound 100 in the plasma after 151 (statement)” value is “substantial levels of compound 100 in the plasma”. The oral bioavailability result in series [1] (Discussion) is “about 60%”.
Molecule `CN1CCN(C(=O)C2C3CCC(O3)C2C(=O)O)CC1` (stereo not drawn) [Compound 100, 3-(4-methylpiperazine-1-carbonyl)-7-oxa-bicyclo[2,2,1]-heptane-2-carboxylic acid] returned a half-inhibitory concentration (IC50) in the series with human cancer cell lines of 1 to 3 µM. In addition, the “passage of the blood brain barrier (BBB) (statement)” value in series [2] is given as “does not readily pass the blood brain barrier”. For the same molecule, the “presence in plasma after oral administration (statement)” value in series [3] was “little is present in plasma”. Also, in series [4] (0.15 mg/kg), the AUClast was 335 ng·h/mL, the Cmax is 370 ng/mL, the Co was 566 ng/mL and the T1/2 was 28.2 min. Also, the Tmax in series [4] (0.15 mg/kg) was 15 min. In series [4] (0.30 mg/kg), the AUClast was 1020 ng·h/mL, the Cmax was 731 ng/mL, the Co is 857 ng/mL and the T1/2 was 48.6 min. Also, the Tmax in series [4] (0.30 mg/kg) was 21 min. Also, in series [4] (0.50 mg/kg), the AUClast was 2120 ng·h/mL, the maximum concentration (Cmax) was 1260 ng/mL, the Co is 1930 ng/mL and the T1/2 was 72 min. In addition, the Tmax in series [4] (0.50 mg/kg) was 15 min. Also, the “stability in the presence of microsomes” value in series [5] is recorded as “stable relative to verapamil”. In addition, the “stability in the presence of microsomes” value in series [6] is given as “stable relative to verapamil”. Moreover, in the series “in vivo”, the bioavailability turned out to be 1%.

Broadly, the IC50 is the concentration at which inhibition is half-maximal. High values mean weaker potency, low ones greater potency. The term Cmax denotes the highest concentration seen after dosing. As usually defined, the Tmax is the time at which the peak concentration occurs. What is called bioavailability is dose-corrected exposure relative to a reference, in per cent. Low values mean little systemic uptake, high ones much systemic uptake.
